Test results taken from US5527777A, “Peptide compounds, in particular LHRH-antagonists” (Schering Aktiengesellschaft, priority 1991, dated 1996).

What was measured:
[1] = tested on: release of histamine; experiment: in vivo observation of edematous changes on face/extremities as sign of histamine release; parameters: species or system rats; details: 0.1 to 5 mg/kg of body weight subcutaneously
Excerpt: In addition to the reduction of the testosterone value, the release of histamine is of importance. […] This in vivo test is ascribed considerably more relevance than the Mastzell test, used in many cases.

[2] = tested on: serum testosterone concentration; experiment: testosterone-reducing potential in intact adult male rats (serum testosterone, radioimmunological); format: in vivo; details: subcutaneous, one time, 0.25 mg/kg of body weight, after 24 hours
Description: The peptide compounds are to be used in the treatment of benign enlargements of the prostate and carcinomas of the prostate. Therefore, the testosterone-reducing potential is tested. For this purpose, generally clearly higher dosages of one and the same antagonists are required than for the induction of an inhibition of ovulation. In the test process used here, intact adult male rats are subcutaneously treated one time with the substance to be tested. The effect on the serum testosterone concentration after 24 hours is determined radioimmunologically (kit of the Biermann company).

[3] = tested on: Mastzell; experiment: Mastzell test (release of histamine); format: cell-based; details: ED50 still not achieved at highest stated concentration

edematous changes on the face and/or on the extremities (typical of histamine release) [1]: occur at none of the tested dosages
Substance: Ac--D--Nal--D--Cpa--D--Pal--Ser--Tyr--D--Cit--Leu--Ahx(Mor)--Pro--D--Ala--NH2 [Example 13]
inhibition of serum testosterone concentration in comparison to the control [2]: 26%
ED50 of the release of histamine [3]: > 10 mg/L
